{"source": "patent US20210046084A1", "about": "“TREATMENT OF ADVANCED ESTROGEN RECEPTOR POSITIVE BREAST CANCER” (ESTETRA SPRL, priority 2018, published 2021)", "key": {"[1]": {"target": "T1, SHBG (Homo sapiens, UniProt P04278)", "T1 sequence (P04278 30-402)": "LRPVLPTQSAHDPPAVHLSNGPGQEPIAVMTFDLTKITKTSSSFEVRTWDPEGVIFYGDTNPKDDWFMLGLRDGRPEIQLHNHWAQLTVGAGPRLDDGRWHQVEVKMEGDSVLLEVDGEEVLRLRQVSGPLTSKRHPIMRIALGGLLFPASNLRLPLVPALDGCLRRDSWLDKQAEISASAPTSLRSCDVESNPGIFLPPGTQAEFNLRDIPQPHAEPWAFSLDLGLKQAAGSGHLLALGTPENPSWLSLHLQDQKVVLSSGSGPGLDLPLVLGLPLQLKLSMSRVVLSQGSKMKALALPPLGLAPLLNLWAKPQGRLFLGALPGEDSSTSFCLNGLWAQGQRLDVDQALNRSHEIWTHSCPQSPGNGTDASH", "conditions": "cited from earlier work"}, "[2]": {"tested_on": "long term estrogen deprived MCF7 breast cancer cells (LTED cells)", "experiment": "Growth of long term estrogen deprived MCF7 cells, cell count analysis", "assay_type": "cell-based", "conditions": "for Cell number per well: LTED cells, count on Day 7, control 5.36", "experimental": "In order to assess the potential of an estetrol component to inhibit the growth of estrogen deprived breast cancer cells, in vitro studies in long term estrogen deprived MCF7 breast cancer cells (LTED cells) were conducted. LTED cells are deprived of estrogen, making them a suitable in vitro model to study drug effects in women who have been using estrogen activity suppressors for a long time.\nLTED cells were plated in 6-well plates at a density of 30,000 cells per well. The cells were maintained in phenol red free IMEM with 5% charcoal stripped FBS (DCC-FBS). On Day 3, the medium was replaced with fresh phenol red free IMEM with 5% DCC-FBS. The cells were then exposed to 6 different concentrations of estetrol ranging from 10^−12 M to 10^−7 M or to ethanol as vehicle control. The final vehicle concentration was 0.1% ethanol for all experiments. Each treatment was made in duplicate.\nOn Day 5, the medium was changed and on Day 7 plates were subjected to a cell count analysis."}, "[3]": {"tested_on": "ER+ locally advanced and/or metastatic breast cancer", "experiment": "Phase I/IIa dose-escalation study of E4 in advanced breast cancer (patient of Example 4)", "assay_type": "in vivo, human", "conditions": "20 mg E4 per day oral, 12 weeks", "experimental": "An open-label, phase I/11a trial, dose-escalation study with a 3+3 cohort design is carried out to determine the recommended dose of E4 for the treatment of patients with advanced breast cancer. After completing the phase I part of the study (i.e. 4 weeks of treatment), patients receive further treatment for 8 weeks at their individual phase I dose level (phase IIa part of the study). Patients are treated for 12 weeks. Treatment continues after 12 weeks of treatment until the patient is withdrawn from the study either due to unacceptable adverse events (AEs) or disease progression. These patients are followed up according to clinical practice including radiological tumour assessments.\nIn total at least 9 patients with ER+ locally advanced and/or metastatic breast cancer having exhausted all treatment options are enrolled in the study. Patients are at least 5 years postmenopausal and have failed anti-estrogen treatment with tamoxifen and aromatase inhibitor because the cancer has become resistant to treatment with tamoxifen or aromatase inhibitor, or because the patient has discontinued treatment due to unacceptable side-effects. No treatment with fulvestrant is allowed within 6 months prior to the start of the E4 treatment.\n• to assess quality of life in advanced breast cancer patients treated with E4, using specific questions on estrogen deficiency symptoms; • to assess preliminary anti-tumour response of E4 in patients with advanced breast cancer, according to RECIST 1.1 at the end of the study (i.e. after 12 weeks); • to assess the trough (Cmin) levels of E4 in patients with advanced breast cancer, by measuring E4 plasma concentrations before dosing at different time points during the study.\n• to evaluate the safety profile of E4 in patients with advanced breast cancer by: • Performing routine laboratory parameters; • Performing physical examination; • Measuring vital signs; • Measuring electrocardiograms (ECGs); • Recording and monitoring of incidence and severity of clinical AEs and SAEs; • Radiological tumour assessments.\nAfter completing the phase I part of the study (i.e. 4 weeks of treatment), patients receive further treatment for 8 weeks at their individual phase I dose level (phase IIa part of the study). The phase IIa part of the study includes explorative efficacy assessments to evaluate potential anti-tumour effects of E4 by RECIST criteria based on evaluation of pre- and end of treatment imaging.\nTreatment is escalated in doses of 20 mg, 40 mg and 60 mg E4 across cohorts according to the 3+3 design until the non-tolerable dose is determined or the maximum anticipated dose (MAD) of 60 mg is reached. Patients are treated once daily with an oral administration of E4. […]"}, "[4]": {"experiment": "Plasma levels and tolerability of estetrol after daily oral administration in female patients", "assay_type": "in vivo, human", "conditions": "for Trough plasma level: average of Day 7 and Day 14; for Cmax: human, plasma, read-out: Cmax plasma level", "experimental": "For each group dosed at 2, 10, 20 and 40 mg estetrol daily (oral administration), 9 to 10 female patients were tested for their plasma content in estetrol at Day 7 and at Day 14. For each dose group, the average trough level of all patients across both days was calculated."}}, "note": "Read-outs that look alike come from different tables or passages of the source.", "data": [{"smiles": "C[C@]12CC[C@@H]3c4ccc(O)cc4CC[C@H]3[C@@H]1CC[C@@H]2O", "note": "[estradiol, 17beta-estradiol, reference compound]", "values": [{"measurement": "Binding to SHBG (affinity)", "setting": "[1]; Hammond G L et al., Climacteric 2008", "value": "about 40%"}]}, {"smiles": "C[C@]12CC[C@@H]3c4ccc(O)cc4CC[C@H]3[C@@H]1[C@@H](O)[C@@H](O)[C@@H]2O", "note": "[estetrol, estra-1,3,5(10)-triene-3,15α,16α,17β-tetrol]", "values": [{"measurement": "Cell number per well", "setting": "[2]; 10^−7 M estetrol", "value": "0.49 ×10^5"}, {"measurement": "Cell number per well", "setting": "[2]; 10^−8 M estetrol", "value": "0.59 ×10^5"}, {"measurement": "Cell number per well", "setting": "[2]; 10^−9 M estetrol", "value": "0.56 ×10^5"}, {"measurement": "Cell number per well", "setting": "[2]; 10^−10 M estetrol", "value": "0.63 ×10^5"}, {"measurement": "Cell number per well", "setting": "[2]; 10^−11 M estetrol", "value": "3.62 ×10^5"}, {"measurement": "Cell number per well", "setting": "[2]; 10^−12 M estetrol", "value": "5.58 ×10^5"}, {"measurement": "Inhibition of growth of LTED cells", "setting": "[2]; 10^−12 M to 10^−7 M", "value": "able to inhibit the growth of LTED cells"}, {"measurement": "Concentration at which peak inhibition of LTED cell growth is observed", "setting": "[2]; no further inhibition at higher concentrations", "value": "10^−10 M"}, {"measurement": "Effect on quality of life (QOL)", "setting": "[3]", "value": "advantageous effect"}, {"measurement": "Adverse event considered related to treatment", "setting": "[3]; only one related AE, patient", "value": "breast tenderness with mild intensity"}, {"measurement": "Tolerability of treatment", "setting": "[3]; patient", "value": "tolerated the treatment very well"}, {"measurement": "Tumour burden during treatment", "setting": "[3]; progressive disease at start", "value": "remained stable"}, {"measurement": "Trough plasma level", "setting": "[4]; 2 mg daily oral dose", "value": 240, "unit": "pg/mL"}, {"measurement": "Cmax plasma level", "setting": "[4]; 10 mg daily oral dose", "value": "9,500 pg/mL"}, {"measurement": "Trough plasma level", "setting": "[4]; 20 mg daily oral dose", "value": "1,950 pg/mL"}, {"measurement": "Trough plasma level", "setting": "[4]; 40 mg daily oral dose", "value": "5,070 pg/mL"}, {"measurement": "Tolerability", "setting": "[4]; 2, 10, 20 and 40 mg daily oral", "value": "well tolerated"}, {"measurement": "Cmax", "setting": "[4]; 2 mg daily oral dose", "value": 1.3, "unit": "ng/mL"}, {"measurement": "Cmax", "setting": "[4]; 20 mg daily oral dose", "value": 23.5, "unit": "ng/mL"}, {"measurement": "Cmax", "setting": "[4]; 40 mg daily oral dose", "value": 82.7, "unit": "ng/mL"}, {"measurement": "Binding to SHBG", "setting": "[1]", "value": "does not bind to SHBG"}]}]}
